ChEMBL document CHEMBL1201862, “PubChem BioAssay data set” (2004)
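Following 48 hours of exposure in 96-well plates, responses at five concentrations were used to interpolate endpoints linearly. Abbreviation: GI50, concentration required for 50% inhibition of growth.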 Active and inactive are the calls of the source. Cut-off read from the data, not from the text of the source: active = GI50 up to about 1.1 µM and inactive = higher.

Tests used:
Experiment in all cases: inhibition of tumour cell growth, NCI panel, 48 h
RXF 393 = tested on: RXF 393
EKVX = tested on: EKVX
SNB-78 = tested on: SNB-78
UO-31 = tested on: UO-31
SK-MEL-2 = tested on: SK-MEL-2
IGROV-1 = tested on: IGROV-1
HCC 2998 = tested on: HCC 2998
Malme-3M = tested on: Malme-3M
SK-OV-3 = tested on: SK-OV-3
MOLT-4 = tested on: MOLT-4
OVCAR-3 = tested on: OVCAR-3
NCI/ADR-RES = tested on: NCI/ADR-RES
DLD-1 = tested on: DLD-1
DMS-273 = tested on: DMS-273
DMS-114 = tested on: DMS-114
ACHN = tested on: ACHN
MDA-MB-435 = tested on: MDA-MB-435
Hs-578T = tested on: Hs-578T
DU-145 = tested on: DU-145
MDA-N = tested on: MDA-N

COc1ccc(OCC(C)(C)O)cc1
GI50 (RXF 393): > 100 µM (inactive)
GI50 (EKVX): > 100 µM (inactive)
GI50 (SNB-78): > 100 µM (inactive)
GI50 (UO-31): > 100 µM (inactive)
GI50 (SK-MEL-2): > 100 µM (inactive)
GI50 (IGROV-1): > 100 µM (inactive)
GI50 (HCC 2998): > 100 µM (inactive)
GI50 (Malme-3M): > 100 µM (inactive)
GI50 (SK-OV-3): > 100 µM (inactive)
GI50 (MOLT-4): > 100 µM (inactive)
GI50 (OVCAR-3): > 100 µM (inactive)
GI50 (NCI/ADR-RES): > 100 µM (inactive)
GI50 (DLD-1): > 100 µM (inactive)
GI50 (DMS-273): > 100 µM (inactive)
GI50 (DMS-114): > 100 µM (inactive)

CN(C)CC1CCCC1=O (centres undefined)
GI50 (RXF 393): 2.55 µM (inactive)
GI50 (EKVX): 1.71 µM (inactive)
GI50 (ACHN): 3.03 µM (inactive)
GI50 (SNB-78): 2.48 µM (inactive)
GI50 (UO-31): 9.38 µM (inactive)
GI50 (SK-MEL-2): 5.21 µM (inactive)
GI50 (MDA-MB-435): 4.39 µM (inactive)
GI50 (IGROV-1): 7.57 µM (inactive)
GI50 (HCC 2998): 2.17 µM (inactive)
GI50 (Malme-3M): 1.02 µM (active)
GI50 (SK-OV-3): 15.3 µM (inactive)
GI50 (MOLT-4): 0.144 µM (active)
GI50 (OVCAR-3): 1.51 µM (inactive)
GI50 (Hs-578T): 17.9 µM (inactive)
GI50 (NCI/ADR-RES): 20.7 µM (inactive)
GI50 (DLD-1): 0.195 µM (active)
GI50 (DU-145): 17.5 µM (inactive)
GI50 (DMS-273): 1.55 µM (inactive)
GI50 (DMS-114): 1.08 µM (active)

CCCCCCCCCCCC(=O)OCC(C[As](=O)(O)O)OC(=O)CCCCCCCCCCC (centres undefined)
GI50 (RXF 393): 2.43 µM (inactive)
GI50 (MDA-N): 4.48 µM (inactive)
GI50 (EKVX): 7.74 µM (inactive)
GI50 (ACHN): 2.24 µM (inactive)
GI50 (SNB-78): 2.82 µM (inactive)
GI50 (UO-31): 12.4 µM (inactive)
GI50 (SK-MEL-2): 3.92 µM (inactive)
GI50 (MDA-MB-435): 3.46 µM (inactive)
GI50 (IGROV-1): 1.74 µM (inactive)
GI50 (HCC 2998): 6.22 µM (inactive)
GI50 (Malme-3M): 2.48 µM (inactive)
GI50 (SK-OV-3): 13.8 µM (inactive)
GI50 (MOLT-4): 3.96 µM (inactive)
GI50 (OVCAR-3): 8.81 µM (inactive)
GI50 (Hs-578T): 4.2 µM (inactive)
GI50 (NCI/ADR-RES): 21.3 µM (inactive)
GI50 (DLD-1): 15.8 µM (inactive)
GI50 (DU-145): 17.5 µM (inactive)
GI50 (DMS-273): 2.47 µM (inactive)
GI50 (DMS-114): 1.65 µM (inactive)

COC(=O)c1cc2c(s1)C(=O)c1ccccc1-2
GI50 (RXF 393): > 100 µM (inactive)
GI50 (EKVX): > 100 µM (inactive)
GI50 (ACHN): > 100 µM (inactive)
GI50 (SNB-78): > 100 µM (inactive)
GI50 (UO-31): > 100 µM (inactive)
GI50 (SK-MEL-2): > 100 µM (inactive)
GI50 (IGROV-1): > 100 µM (inactive)
GI50 (HCC 2998): > 100 µM (inactive)
GI50 (Malme-3M): > 100 µM (inactive)
GI50 (SK-OV-3): > 100 µM (inactive)
GI50 (MOLT-4): > 100 µM (inactive)
GI50 (OVCAR-3): > 100 µM (inactive)
GI50 (DLD-1): > 100 µM (inactive)
GI50 (DMS-273): > 100 µM (inactive)
GI50 (DMS-114): > 100 µM (inactive)

Cc1ccc(N2Cc3c(ccc4ccccc34)OP2(=O)Oc2ccc(Cl)c(C)c2)cc1 (centres undefined)
GI50 (RXF 393): > 79.4 µM (inactive)
GI50 (EKVX): > 100 µM (inactive)
GI50 (SNB-78): > 100 µM (inactive)
GI50 (UO-31): 20.3 µM (inactive)
GI50 (SK-MEL-2): > 100 µM (inactive)
GI50 (IGROV-1): > 100 µM (inactive)
GI50 (HCC 2998): > 100 µM (inactive)
GI50 (Malme-3M): > 100 µM (inactive)
GI50 (SK-OV-3): > 100 µM (inactive)
GI50 (MOLT-4): 14.2 µM (inactive)
GI50 (OVCAR-3): > 31.6 µM (inactive)
GI50 (NCI/ADR-RES): > 78.7 µM (inactive)
GI50 (DLD-1): > 41.8 µM (inactive)
GI50 (DMS-273): > 77.8 µM (inactive)
GI50 (DMS-114): > 67.1 µM (inactive)

COc1ccc(C2C3C(=O)C=CC(=O)C3[C@@H]2C)cc1OC (some centres undefined)
GI50 (RXF 393): > 100 µM (inactive)
GI50 (EKVX): > 100 µM (inactive)
GI50 (ACHN): 47.6 µM (inactive)
GI50 (SNB-78): > 100 µM (inactive)
GI50 (UO-31): 73.5 µM (inactive)
GI50 (SK-MEL-2): > 100 µM (inactive)
GI50 (IGROV-1): > 100 µM (inactive)
GI50 (HCC 2998): > 100 µM (inactive)
GI50 (Malme-3M): > 100 µM (inactive)
GI50 (SK-OV-3): > 100 µM (inactive)
GI50 (MOLT-4): 36 µM (inactive)
GI50 (OVCAR-3): > 100 µM (inactive)
GI50 (DLD-1): > 100 µM (inactive)
GI50 (DMS-273): 61.4 µM (inactive)
GI50 (DMS-114): 56.5 µM (inactive)
